Earlier results, collected in patent US20190328829A1, “TRIPARTITE COMBINATION THERAPY FOR PROSTATE CANCER” (UNIVERSITY OF MARYLAND, BALTIMORE, priority 2016, published 2019).

Columns and labels:
testosterone = conditions: males, continuous administration

| solubility in water | Compound | testosterone reduced to castrate levels (testosterone) |
| --- | --- | --- |
| virtually insoluble in water | O=c1c(-c2ccc(O)cc2)coc2cc(O)cc(O)c12 [Genistein, 5,7-dihydroxy-3-(4-hydroxyphenyl)-chromen-4-one] | – |
| – | CCNC(=O)[C@@H]1CCCN1C(=O)[C@H](CCCNC(=N)N)NC(=O)[C@H](CC(C)C)NC(=O)[C@@H](CC(C)C)NC(=O)[C@H](Cc1ccc(O)cc1)NC(=O)[C@H](CO)NC(=O)[C@H](Cc1c[nH]c2ccccc12)NC(=O)[C@H](Cc1c[nH]cn1)NC(=O)[C@@H]1CCC(=O)N1 [leuprolide acetate, Leuprolide acetate] | below 50 ng/dL |
